# Test results: US7893252B2, “Selectively depolymerized galactomannan polysaccharide” (priority 2003, dated 2011)
# Tests used:
# [1] = tested on: human colon tumor COLO 205; experiment: Efficacy study in COLO 205 human colon tumor xenografts, q4d×3 (Example 3); settings: 5-FU 75 mg/kg/dose
# Experimental: The both studies were conducted as follows.
# 5-FU alone was administered i.v. on the same q4d×3 treatment schedule at doses of 75 mg/kg/dose (225 mg/m2/dose). 5-FU was formulated in saline fresh on each day of treatment at a concentration of 3.75 mg/mL, at pH 9.2. […] Both individual compounds and their mixture were administered according to exact body weight with injection volume being 0.2 mL/10 g body weight.
# There were a total of four groups of 10 animals each, s.c.-implanted with COLO 205 human colon tumor xenografts.
# [2] = tested on: COLO 205 human colon tumor xenografts; experiment: Efficacy and compatibility with leucovorin in COLO 205 human colon tumor xenografts, q4d×4 (Example 4); settings: GM 120 mg/kg/dose
# Experimental: The principal differences with the study described in Example 3 were that (a) the galactomannan was from another source, of a different size (molecular weight) and with a different Man/Gal ratio, (b) there were four consecutive injections, not three, (c) there were four doses of the galactomannan tested, not one, (d) 5-FU was administered (i.v.) in 48 mg/kg/dose, not 75 mg/kg/dose, as in the first study, and (e) galactomannan (i.v. injection) was compared with leucovorin (oral gavage, administered two hours after 5-FU) in terms of efficacy and toxicity. […] 5-FU alone was administered i.v. on the same q4d×4 treatment schedule at dosages of 48 mg/kg/dose. 5-FU was formulated in saline fresh on each day of treatment at a concentration of 4.8 mg/mL, at pH 9.2. […] Leucovorin powder (clinical formulation, Leucovorin calcium for injection) was reconstituted with water for injection to yield a concentration of 10 mg/mL. On each day of treatment the stock solution was diluted with water for injection to yield a concentration of 2.5 mg/mL.
# Two more combination-treatment groups were also included in the study. One group of mice was treated with 5-FU (48 mg/kg/dose, i.v., q4d×4), followed by oral gavage (p.o.) with leucovorin, administered two hours after 5-FU at a dosage of 25 mg/kg/dose. Another two groups of mice were treated with 5-FU in a combination with the galactomannan (48 mg/kg/dose and 120 mg/kg/dose, respectively, i.v., q4d×4), followed by p.o. leucovorin treatment, administered at a dosage of 25 mg/kg/dose two hours after 5-FU plus the galactomannan.
# There were a total of nine groups of 10 animals each, s.c.-implanted with COLO 205 human colon tumor xenografts.
# [3] = tested on: mice; experiment: Acute toxicology, single IV dose in mice; type: in vivo; settings: single IV dose 409 mg/kg (1227 mg/m2) 5-FU
# Experimental: Acute toxicology studies of the galactomannan of the present invention were performed in mice, rats and dogs and subchronic toxicology studies were performed in rats and dogs. The following is a summary of the findings of these studies: […]
# [4] = tested on: rats; experiment: Acute toxicology, single IV dose in rats; type: in vivo; settings: 5-FU 140 mg/kg, galactomannan 72 mg/kg, combination 140/72 mg/kg, n=5/sex/group
# Experimental: (§1) Acute toxicology studies of the galactomannan of the present invention were performed in mice, rats and dogs and subchronic toxicology studies were performed in rats and dogs. The following is a summary of the findings of these studies:
# In rats (n=5/sex/group), single IV doses of 140 mg/kg (840 mg/m2) 5-FU, 72 mg/kg (432 mg/m2) galactomannan or 140/72 mg/kg of the combination produced no deaths in any of the groups.
# Toxic changes in body weight, feed consumption, and hematology were less severe in the rats injected with the combination, versus those injected with 5-FU alone.
# [5] = tested on: dogs; experiment: Acute toxicology, single IV injection in dogs; type: in vivo; settings: 5-FU 28.5 mg/kg, galactomannan 15 mg/kg, combination 28.5/15 mg/kg
# Experimental: as §1
# The surviving dogs remained clinically normal and had no treatment-related changes in body weight, feed consumption, ECG tracings, clinical pathology or gross tissue changes during the 21-day study period.
# [6] = tested on: rats; experiment: 28-day subchronic rat study (Example 7); type: in vivo; settings: 48 mg/kg 5-FU, daily IV for four consecutive days
# Experimental: In the 28-day subchronic rat study performed with research grade unfiltered galactomannan, single daily IV doses of 10 mL/kg saline, 48 mg/kg (288 mg/m2) 5-FU, 48 mg/kg (288 mg/m2) galactomannan or 24/13 mg/kg (144/78 mg/m2), 36/19 mg/kg (216/114 mg/m2) or 48/25 mg/kg (288/150 mg/m2) of the 5-FU/galactomannan combination were given at a rate of 1 mL/min for four consecutive days. The four doses of 5-FU produced mortality (7/8 with 48 mg/kg 5-FU; 1/8, 2/8 and 7/8 with 24/13, 36/19 and 48/25 mg/kg 5-FU/galactomannan, respectively).
# Lesions in unscheduled-death animals were primarily due to the expected action of 5-FU on the hematopoietic and lymphoid systems, with secondary bacterial invasion and disseminated hemorrhage due to effects on coagulation. At the study day 5 necropsy, lesions included pronounced hypocellularity of the bone marrow, lymphoid atrophy of the thymus and atrophy of villi in the various segments of the small intestine (all considered due to the expected action of 5-FU). With the exception of the mild granulomatous foci in the lungs, treatment-related histopathological lesions were resolved in animals sacrificed at study day 29 (only one female survived in Group 2 and Group 6).
# [7] = tested on: beagle dogs; experiment: 28-day canine study (Example 9); type: in vivo; settings: 6 mg/kg (120 mg/m2) 5-FU, daily IV for four consecutive days
# Experimental: In a 28-day canine study, single daily IV doses of saline, 6 mg/kg (120 mg/m2) 5-FU and ([…] (240 mg/m2) galactomannan or 4/2 mg/kg (80/40 mg/m2), 6/3.2 mg/kg (120/64 mg/m2) or 6/6 mg/kg (120/120 mg/m2) 5-FU/galactomannan were injected for four consecutive days to six groups of beagle dogs Mortality occurred in 13 of 48 dogs (five moribund sacrifices and eight found dead) between Study Days 2 and 5 (4/4 males on 5-FU; 3/4 males in the 4/2 mg/kg 5-FU/galactomannan group; 2/4 males and 1/4 females in the 6/3.2 and 6/6 mg/kg 5-FU/galactomannan groups, respectively).
# Adverse effects in 5-FU groups included ataxia, prostration, vocalization, convulsions, tremors, hypersensitivity to touch, aggressive behavior (resulting in only three doses being given to the 6/3.2 5-FU/galactomanna group), emesis, salivation, soft stools and decreased red cell parameters and platelet counts. […] At the day 5 necropsy, treatment-related histological changes were largely limited to the 5-FU females. At day 29 necropsy, there were no remarkable changes in the survivors.
# [8] = tested on: advanced colorectal cancer; settings: cited from earlier work
# [9] = q4d×4, 5-FU 48 mg/kg/dose i.v., leucovorin oral 25 mg/kg/dose
Compound,"mean survival time ([1]; i.v. q4d×3, GM 120 mg/kg/dose)","median to quadrupling of tumor volume ([1]; i.v. q4d×3, GM 120 mg/kg/dose)","median tumor volume after 56 days of the study ([1]; i.v. q4d×3, GM 120 mg/kg/dose)","tumor regression after 56 days of the study ([1]; i.v. q4d×3, GM 120 mg/kg/dose)","treatment-related deaths ([1]; i.v. q4d×3, GM 120 mg/kg/dose, 10 mice per group, within two weeks)","time required to quadruple tumor weight ([1]; intravenous, galactomannan 120 mg/kg/day (360 mg/m2))","median to quadrupling of tumor volume ([2]; i.v. q4d×4, 5-FU 48 mg/kg/dose)","median tumor volume after 13 days ([2]; i.v. q4d×4, 5-FU 48 mg/kg/dose)","median days to quadrupling of tumor weight [2, 9]","tumor weight at Day 13 from treatment initiation, mean [2, 9]","tumor weight at Day 13 from treatment initiation, median [2, 9]",death [3],time of death [3],deaths [4],death [5],mortality [6],mortality between Study Days 2 and 5 [7],patients with hand-foot syndrome ([8]; continuous infusion regimens),single agent response rate ([8]; previously treated colorectal cancer patients)
"O=c1[nH]cc(F)c(=O)[nH]1 [5-FU, 5-fluorouracil, reference compound]",23.7 days,23.7 days,2254 mm3,no tumor regression,three of ten,23.5 days,8.7 days,800 mm3,8.7 days,734 mg,800 mg,3/5,13 to 16 days,no deaths,2/2,7/8,4/4,approximately 20%,
O=C1[O][Pt]2([NH][C@@H]3CCCC[C@H]3[NH]2)[O]C1=O [Oxaliplatin],,,,,,,,,,,,,,,,,,,10%
